In the METLIN SMRT retention time set (Domingo-Almenara et al. 2019) one finds RP-LC retention time data, which are given here for 59 molecules.

This data set is described as follows: gradient 5% acetonitrile 3 min, to 50% in 2 min, to 85% in 15 min, held 3 min, 100 µL/min. As to conditions: column: Zorbax Extend-C18 2.1 x 50 mm; eluents: water / acetonitrile, 0.1% formic acid. Put shortly:
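Retention times of pure standards were taken from adduct peaks that were selected by computer and manually inspected. Over 3 months, mixtures of ~100 molecules were run by HPLC–quadrupole time-of-flight mass spectrometry in positive and negative ionization mode. The Zorbax Extend-C18 column (2.1 × 50 mm, 1.8 μm) ran at 100 μL/min in water and acetonitrile, each containing 0.1% formic acid, with 40 μL dead volume and 900 μL dwell volume.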
As to `CCOc1ccc(/C=C/c2nc3ccccc3n(C)c2=O)cc1`, the RP-LC retention time stood at 933 s.
The figure for `CCOc1cc(-c2noc(-c3ncn4c3COC(c3ccc(F)cc3)C4)n2)ccc1OC` (centres undefined) is 1040 s; for `COc1cc(-n2c(=S)[nH]c3ccccc3c2=O)c(Cl)cc1Cl` it is 923 s.
The result for `COc1ccc(C2CC(=O)c3cnc(Nc4nc(C)c5ccc(C)cc5n4)nc3C2)cc1` (centres undefined) reads 593 s; that for `CSc1ccc(CCNC(=O)c2nc(N3CCOCC3)c3ccccc3n2)cc1`, 721 s.
The result for `COc1ccccc1NC(=O)C1CC(=O)N(c2n[nH]c3cccc(F)c23)C1` (centres undefined) reads 728 s; that for `Cc1ccc(N2C(=O)C3N=NN(c4ccccc4)C3C2=O)cc1C` (centres undefined), 1010 s; that for `c1ccc(-c2nc(-c3cnccn3)no2)c(OC2CNC2)c1`, 583 s.
For `CCCn1c(=O)c(C)nc2cc(-c3noc(/C=C/c4ccc(OC)cc4)n3)ccc21`, the RP-LC retention time came to 1210 s.
The result for `CCCNC(=O)CCc1nc2ccccc2n(CC(=O)Nc2cccc(SC)c2)c1=O` reads 819 s; that for `CCn1cc(CCNC(=O)Nc2cccc(Cl)c2F)c2cccnc21`, 802 s.
The result for `Cc1ccccc1CNC(=O)C1CCCN(C(=O)c2[nH]c(C)c(C(=O)OC(C)C)c2C)C1` (centres undefined) reads 896 s; that for `O=C(C1CCCC1)N1CC(c2nc(-c3ccccc3)no2)C2(CCOCC2)C1` (centres undefined), 923 s; that for `Cc1ccc(/C=C/c2nc(-c3ccc4c(c3)oc(=O)n4C(C)C)no2)o1`, 659 s.
The figure for `CCc1noc(NC(C)=O)c1-c1ccc(OC)c(S(=O)(=O)N2CCCC2)c1` is 710 s; for `O=C(Nc1ccc2c(N3CCCCC3)ncnc2c1)c1cncc(Br)c1` it is 664 s.
`CC1CCC(C(=O)Nc2cc3c(cc2N2CCCCC2)n(C)c(=O)c(=O)n3C)CC1` (centres undefined): the RP-LC retention time amounted to 1050 s.
The figure for `CCN1C(=O)Cc2ccccc2C1C(=O)NCc1ccc(Br)cc1` (centres undefined) is 802 s; for `Fc1ccccc1CN1CCc2nc(N3CCN(c4ccccc4F)CC3)ncc2C1` it is 771 s; for `COc1cc(NC(=O)c2cnn(-c3ccc(Br)cc3)c2)cc(OC)c1OC` it is 931 s.
The result for `Cc1ccc(S(=O)(=O)N2CCC(CN3CCCCCC3)CC2)cc1Cl` reads 721 s.
The result for `CC(CNC(=O)CC1CCN(S(=O)(=O)c2ccccc2)CC1)c1ccccc1` (centres undefined) reads 866 s; that for `CCn1cc(C)c(C(=O)O)c1CC(=O)N(C)c1cccc(Cl)c1`, 792 s; that for `O=C(NCc1cccc2ccccc12)NCC1CN(c2ccccc2)C(=O)O1` (centres undefined), 781 s.
As to `CCOC(=O)c1cccc(Nc2c(C(=O)N3CCC(C)CC3)cnc3nc(C)ccc23)c1`, the RP-LC retention time stood at 666 s.
The result for `COC(=O)c1ccc(C(=O)OC)c(NS(=O)(=O)CCOc2ccccc2)c1` reads 968 s; that for `CC(=O)c1ccc(NC(=O)C2CCCN(c3nc(C)nc4oc(C)c(C)c34)C2)cc1` (centres undefined), 839 s.
The result for `COc1ccc(C(O)CN2CCN(c3cccc(C)c3)CC2)cc1OC` (centres undefined) reads 653 s.
The figure for `COC(=O)Cn1c(C2CC(=O)N(c3cccc(C)c3)C2)nc2ccccc21` (centres undefined) is 758 s; for `O=C(CC1CCCCN1S(=O)(=O)c1ccc(Cl)cc1)NCc1cccnc1` (centres undefined) it is 568 s.
With `Cc1ccc(C)c(-n2ncc3c(N4CCN(C)CC4)ncnc32)c1`, the RP-LC retention time was found to be 614 s.
The result for `COc1ccccc1N1CCN(CCCCN2C(=O)CCC2=O)CC1` reads 650 s; that for `COc1ccc(-c2nc(-c3cccc(-c4ccnn4C)c3)no2)cc1F`, 1130 s; that for `COc1ccc(Cn2cccc2-c2nc(C)no2)cc1`, 1020 s.
The figure for `Cc1csc(-c2cc(S(=O)(=O)NCCCN3CCCc4ccccc43)c(C)s2)n1` is 1420 s; for `Cc1nn(-c2nc(-c3ccccc3)cs2)c(C)c1CC(=O)Nc1ccccc1` it is 1130 s.
The result for `Cc1ccc(-c2ccc(N3CCCC(C(=O)NCc4ccco4)C3)nn2)cc1C` (centres undefined) reads 719 s; that for `NC(=O)c1cccc2cn(-c3ccc([C@@H]4CCCNC4)cc3)nc12`, 630 s; that for `CS(=O)(=O)Nc1ccc(C2(C(=O)NCc3ccco3)CCCCC2)cc1`, 806 s.
Take `Cc1ccc(C)c(N2CCN(C(=O)c3c(C)oc4nc(C)nc(N5CCOCC5)c34)CC2)c1`: the RP-LC retention time turned out to be 1020 s.
The result for `CC(C)NC(=O)c1ccc(OCC2CCCN(C(=O)C3(c4ccccc4)CC3)C2)cc1` (centres undefined) reads 940 s; that for `O=C(Cn1nc(C2CC2)cc1C(=O)N1CCCC1)Nc1ccccc1`, 740 s; that for `O=C(NCc1ccccc1)c1ccc(=O)n(CCN2CCCC2)c1`, 579 s.
The figure for `CC(C)c1ccc(S(=O)(=O)N2CCc3c(c(-c4nnc(-c5ccccc5)o4)nn3C)C2)cc1` is 1110 s; for `CCN1CCCn2cc(S(=O)(=O)NCc3ccc(OC)cc3)cc2C1=O` it is 698 s.
For the molecule `Nc1ccc(S(=O)(=O)Nc2cnc3c(Cl)cccc3n2)cc1`, the RP-LC retention time is 719 s.
The result for `O=C(CCn1nnc2cc(-c3noc(-c4ccc(F)cc4)n3)ccc21)N1CCCC1` reads 903 s; that for `Cn1c(=O)c(-c2c(Cl)cccc2Cl)cc2cnc(Nc3ccc(N4CCOCC4)cc3)nc21`, 1010 s.
The result for `CCC(C(=O)NCc1cccnc1)n1c2ccccc2c2cnn(C)c(=O)c21` (centres undefined) reads 615 s; that for `O=C(Cn1c(=O)nc(N2CCCCC2)c2ccccc21)Nc1ccc2c(c1)OCCO2`, 728 s.
The figure for `CCc1nc(-c2csc(S(=O)(=O)N3CCCC(C(=O)NCc4ccccc4Cl)C3)c2)no1` (centres undefined) is 1050 s; for `O=C(N1CCC(Cc2ccc(COc3cccnc3)cc2)CC1)C1(c2ccccc2)CC1` it is 891 s; for `CSc1ccc(NC(=O)c2ccccc2C(F)(F)F)nn1` it is 765 s.
`CN1C(=O)c2ccccc2Sc2ccc(NC(=O)N3CCN(c4ccccn4)CC3)cc21` came in with an RP-LC retention time of 645 s.
The result for `O=C(Cn1c(=O)cc(-c2nc(C3CC3)no2)c2ccccc21)NCc1ccc(Cl)cc1` reads 979 s; that for `CCOC(=O)c1c(S(=O)(=O)NCCN2CCc3ccccc3C2)c(C)n(C)c1C`, 675 s.
The figure for `CCOc1ccccc1NC(=O)C(=O)Nc1ccc([N+](=O)[O-])cc1` is 1060 s; for `O=C(c1cnccn1)N1CCc2nn(CC3CC3)c(=O)n2CC1` it is 598 s; for `COc1ccc(NS(=O)(=O)c2cc(-c3cc(C(F)(F)F)on3)sc2C)cc1` it is 1120 s.
